Among the data in US8357709B2, “2,4-disubstituted pyrrolidine orexin receptor antagonists” (Merck Sharp & Dohme Corp., priority 2008, dated 2013) are Ki values, retold here.

In one experiment the target is T1, orexin-2 receptor (OX2R) (Homo sapiens, UniProt O43614).
T1 construct: expressed in transfected cells; host or cells: CHO cells (membrane preparation)
T1 sequence (O43614 1-444): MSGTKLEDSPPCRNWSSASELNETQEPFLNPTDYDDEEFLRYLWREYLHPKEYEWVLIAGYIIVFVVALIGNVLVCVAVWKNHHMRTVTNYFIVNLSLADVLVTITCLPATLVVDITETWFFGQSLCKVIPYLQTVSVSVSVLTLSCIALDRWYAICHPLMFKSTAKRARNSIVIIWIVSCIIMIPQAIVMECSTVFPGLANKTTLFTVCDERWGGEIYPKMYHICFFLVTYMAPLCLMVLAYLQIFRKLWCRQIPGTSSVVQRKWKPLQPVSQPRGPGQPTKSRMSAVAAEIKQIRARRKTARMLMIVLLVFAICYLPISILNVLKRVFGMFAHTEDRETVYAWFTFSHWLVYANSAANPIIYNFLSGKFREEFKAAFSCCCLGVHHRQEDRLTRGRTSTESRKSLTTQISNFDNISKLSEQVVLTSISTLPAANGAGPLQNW
As to the kind of experiment: radioligand binding assay, membranes from CHO cells expressing OX2 receptor. The note with it: CHO cell membranes. The protocol:
(§1) The utility of the compounds in accordance with the present invention as orexin receptor OX1R and/or OX2R antagonists may be readily determined without undue experimentation by methodology well known in the art, including the “FLIPR Ca^2+ Flux Assay” (Okumura et al., Biochem. Biophys. Res. Comm. 280:976-981, 2001). In a typical experiment the OX1 and OX2 receptor antagonistic activity of the compounds of the present invention was determined in accordance with the following experimental method. […] Within the Fluorescent Imaging Plate Reader (FLIPR, Molecular Devices), test compounds are added to the plate in a volume of 25 ul, incubated for 5 min and finally 25 ul of agonist is added. Fluorescence is measured for each well at 1 second intervals for 5 minutes and the height of each fluorescence peak is compared to the height of the fluorescence peak induced by 70 pM Ala-6,12 orexin-A with buffer in place of antagonist. […] Alternatively, compound potency can be assessed by a radioligand binding assay (described in Bergman et. al. Bioorg. Med. Chem. Lett. 2008, 18, 1425-1430) in which the inhibition constant (Ki) is determined in membranes prepared from CHO cells expressing either the orexin-1 (OX1) or orexin-2 (OX2) receptor. The intrinsic orexin receptor antagonist activity of a compound which may be used in the present invention may be determined by these assays.

The target of another experiment is T2, orexin-1 receptor (OX1R) (UniProt O43613).
T2 sequence (O43613 1-425): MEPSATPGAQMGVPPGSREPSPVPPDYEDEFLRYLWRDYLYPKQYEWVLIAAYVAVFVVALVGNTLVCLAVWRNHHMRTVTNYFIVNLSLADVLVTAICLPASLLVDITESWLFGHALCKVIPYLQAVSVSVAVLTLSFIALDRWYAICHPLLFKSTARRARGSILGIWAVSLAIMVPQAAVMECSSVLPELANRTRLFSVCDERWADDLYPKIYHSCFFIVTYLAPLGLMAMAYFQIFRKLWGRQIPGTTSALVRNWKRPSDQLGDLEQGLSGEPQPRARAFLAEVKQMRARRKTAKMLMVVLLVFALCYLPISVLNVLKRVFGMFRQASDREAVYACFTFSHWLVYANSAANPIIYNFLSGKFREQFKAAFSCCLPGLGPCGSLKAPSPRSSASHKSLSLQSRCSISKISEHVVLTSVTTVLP
As to the kind of experiment: radioligand binding assay, membranes from CHO cells expressing OX1 receptor. The conditions noted are these: CHO cell membranes. The protocol:
as §1

The term Ki denotes the equilibrium dissociation constant of an inhibitor or competing ligand from its target. Read a high Ki as a looser hold on the target. On to `Cc1ccc(-n2nccn2)c(C(=O)N2CC(COc3ccc(F)cn3)CC2C)c1` (racemic) [A-7, 5-fluoro-2-({5-methyl-1-[5-methyl-2-(2H-1,2,3-triazol-2-yl)benzoyl]pyrrolidin-3-yl}methoxy)pyridine], for which the values for the Ki at orexin-2 receptor (OX2R) and on orexin-1 receptor (OX1R) were 10 nM and 230 nM, respectively.
As to `Cc1ccc(-n2nccn2)c(C(=O)N2CC(COc3ccc(F)cn3)CC2C)c1` (single isomer, unassigned) [A-8], the Ki was determined as 5.1 nM at orexin-2 receptor (OX2R) and 37 nM on orexin-1 receptor (OX1R).
